From paper PMC8981457, “Cdyl Deficiency Brakes Neuronal Excitability and Nociception through Promoting Kcnb1 Transcription in Peripheral Sensory Neurons” (Advanced Science, 2022)
Read-outs that look alike come from different tables or passages of the source. *1 amine or outer side, *2 acyl side, *3 side chain or, on linkers, in order; H or OH if unused. Where a SMILES comes first, the peptide text is derived from it. [ ]: non-standard residue; d: D form. X1 = N6‑isopropyl‑N6‑((1-methyl-1H-imidazol-5-yl)methyl)Lys, CC(C)N(CCCC[C@H](N[*:1])C(=O)[*:2])Cc1cncn1C; X2 = CC(C)N(CCCC[C@H](N[*:1])C(=O)[*:2])Cc1cncn1C; Phe(F5) = N[C@@H](Cc1c(F)c(F)c(F)c(F)c1F)C(=O)O; NMeA = CN[C@@H](C)C(=O)O; Inp = O=C(O)C1CCNCC1

How the values were obtained:
CDYL chromodomain = molecular target: T1, CDYL chromodomain (Homo sapiens, UniProt Q9Y232); experiment: isothermal titration calorimetry; format: binding
T1 construct: chromodomain residues 1-78 of NP_004815, N-terminal GST tag (pGEX4T) removed by thrombin for ITC, E. coli Rosetta2 BL21(DE3)pLysS
T1 sequence (Q9Y232 1-78 isoform Q9Y232-2): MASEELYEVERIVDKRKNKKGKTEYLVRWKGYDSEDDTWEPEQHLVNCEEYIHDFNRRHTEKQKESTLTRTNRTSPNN

[1] = molecular target: T2, chromodomain of MPP8 (residues 55-116 of NP_059990) (UniProt Q99549-1 55-116); experiment: not stated; selectivity of UNC6261 among chromodomains (Figure S7); method not given; conditions: both partners purified
T2 construct: M-phase phosphoprotein 8 (MPP8), chromodomain, residues 55-116 of NP_059990; source: E. coli Rosetta2 BL21(DE3)pLysS, purified (HisTrap FF, Superdex 75)
T2 sequence (looked up): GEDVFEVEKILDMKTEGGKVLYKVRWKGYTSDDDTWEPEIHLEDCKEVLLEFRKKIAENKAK

[2] = molecular target: T3, chromodomain of CDYL2 (residues 1-75 of NP_689555) (UniProt Q8N8U2 1-75); experiment: AlphaScreen or HTRF; TR-FRET competition assay for CDYL2, dose-response; 20 mM tris pH 7.5, 150 mM NaCl, 0.05% Tween 20, 2 mM DTT; 1 h equilibration; tracer not named (ref. 30); conditions: both partners purified
T3 construct: chromodomain Y-like protein 2 (CDYL2), chromodomain, residues 1-75 of NP_689555; source: E. coli Rosetta2 BL21(DE3)pLysS, purified (HisTrap FF, Superdex 75)
T3 sequence (looked up): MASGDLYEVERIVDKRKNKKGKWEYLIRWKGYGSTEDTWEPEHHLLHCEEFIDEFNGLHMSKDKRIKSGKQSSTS

Molecule: COC(=O)[C@H](CO)NC(=O)[C@H](CCCCN(Cc1cncn1C)C(C)C)NC(=O)[C@H](Cc1ccccc1)NC(=O)[C@H](C)NC(=O)[C@H](Cc1c(F)c(F)c(F)c(F)c1F)NC(=O)C1CCNCC1 [UNC6261, Methyl N ^6‐isopropyl‐N ^6‐((1‐methyl‐1H‐imidazol‐5‐yl)methyl)‐N ^2‐((S)‐3‐(perfluorophenyl)‐2‐(piperidine‐4‐carboxamido)propanoyl)‐L‐alanyl‐L‐phenylalanyl‐L‐lysyl‐L‐serinate] (H-[Inp][Phe(F5)]AF[X2]S-OMe)
- Kd (CDYL chromodomain; read-out: Kd): 139 ± 3.3 nM

Molecule: COC(=O)[C@H](CO)NC(=O)[C@H](CCCCN(Cc1cncn1C)C(C)C)NC(=O)[C@H](Cc1ccccc1)NC(=O)[C@H](C)N(C)C(=O)[C@H](Cc1c(F)c(F)c(F)c(F)c1F)NC(=O)C1CCNCC1 [UNC7394, Methyl N ^6‐isopropyl‐N ^6‐((1‐methyl‐1H‐imidazol‐5‐yl)methyl)‐N ^2‐N‐methyl‐N‐((S)‐3‐(perfluorophenyl)‐2‐(piperidine‐4‐carboxamido)propanoyl)‐L‐alanyl‐L‐phenylalanyl‐L‐lysyl‐L‐serinate] (H-[Inp][Phe(F5)][NMeA]F[X2]S-OMe)
- Kd (CDYL chromodomain; read-out: no measurable binding): > 50000 nM

B1: UNC6261 (peptide)
peptide: {piperidine‑4‑carbonyl}-[Phe(F5)]AF[X1]S-OMe
notes: peptidomimetic pentapeptide; F1 stands for pentafluorophenylalanine, K4 for the dialkylated lysine mimetic; also called CDYL antagonist; source: synthetic, purified by reverse phase flash chromatography (TFA salt)
- fold selectivity for CDYL over MPP8 [1]: 13 fold
- IC50 [2]: 81 ± 16 nM
